One data set relates to T-REx-293 cells. Briefly: cell toxicity assay for anti-proliferative effect (Cell-Titer Glo). Type of data set: cell-based. The following applies: FIG. 2, 10 μM, 16 hours. On the procedure:
T-REx-293 cells were seeded at a density of 25K cells/well on fibronectin in 96-well plates and grown in DMEM with 10% FBS, 1% P/S medium. 24 hours post-seeding medium was changed to a fresh medium comprising the tested compounds (KS-1, KS-2, or KS-8) at a concentration of 5-10 μM. Non-treated cells were used as a negative control. After 16 hours one plate of the cells was taken for cell viability test using Cell-Titer Glo reagent (Promega). Cells on the other plate were imaged using Incucyte ZOOM system.

Data set [1] deals with ApoL1-G1-induced T-REx-293 stable cell line. Briefly: ApoL1-G1-induced cell viability assay (CellTiter-Glo). It counts as cell-based, human. The following applies: for viability of ApoL1-G1 expressing cells: FIG. 1, 16 hours incubation, 0.08-10 μM, 1 ng/ml Doxycycline, luminescence live-cell count; for cell protective effect against ApoL1 toxicity: cell-based high throughput screening of 200,000 compounds, doxycycline-induced ApoL1-G1 T-REx-293 cells; for cell protective effect against ApoL1 toxicity / cell toxicity: 10 μM; for cell toxicity: high throughput screening, T-REx-293 cells. On the procedure:
ApoL1-G1-induced T-REx-293 stable cell line was generated by introducing Flag-tagged human G1 ApoL1 variant DNA (with African genomic sequence background) into the pcDNA4/TO plasmid, which yield expression upon Doxycycline addition. Cells were cultured in DMEM (Gibco, 41965-039) supplemented with 10% FBS, 1% penicillin-streptomycin at 37° C.
In order to estimate the effect of compounds 1, 3 and 7 on ApoL1-induced cells a cell viability assay was performed as following: cells were seeded at density 23K cells per well (96-well plate). Prior to seeding, wells were coated with Fibronectin (Biological industries, 03-090-1-05) for 1 hour at 37° C. On the following day, cells were switched to the same growth medium but containing 1 ng/ml Doxycycline (Sigma, D9891) with different concentrations of compounds 1, 3 or 7, for 16 hours. Then, cells were subjected to viability assay according to manufacturer's instructions, using CellTiter-Glo luminescent cell viability assay kit (Promega, G7570). The plate was read using Infinite 200 PRO for luminescence, which indicated live-cell count.
Induction of ApoL1-G1 variant by doxycycline causes toxicity in T-REx-293 cell line. In order to identify potential inhibitors of ApoL1 toxicity, a cell-based high throughput screening of 200,000 chemical compounds was performed. Cells were incubated with a compound solution (at 10 μM concentration).
Background: Cellular ATP, detected with luciferase, serves as a proxy for viable cell number.

Structures are written as SMILES.

With `O=c1c2ccccc2n(Cc2ccncc2)c(=O)n1Cc1ccc(Cl)cc1` [KS-1], the “cell count determined via luminescence signal (relative light units, RLU) versus non-treated cells” value in the data set on T-REx-293 cells is “lower”.

Take `Cc1c(C)n(Cc2ccc(Br)cc2)c(=O)n(Cc2ccc(Br)cc2)c1=O` [Compound 1]: in data set [1], the “viability of ApoL1-G1 expressing cells” value was “concentration dependent viability increase”, the “cell protective effect against ApoL1 toxicity” value (“cell protective effect” for short) is “highest cell protective effect” and the cell toxicity entry is listed as “without exhibiting a significant cell toxicity”.

As for `COc1ccccc1C(=O)Nc1cccc(N2CCC(NC(C)c3cnn(-c4ccccc4)c3)CC2)c1` (stereo not drawn) [Compound 7], in data set [1], the “viability of ApoL1-G1 expressing cells” value was “concentration dependent viability increase”, the “cell protective effect” value was “highest cell protective effect” and the cell toxicity entry is given as “without exhibiting a significant cell toxicity”.

On to `O=c1c2ccccc2n(Cc2ccc(Cl)cc2)c(=O)n1Cc1cccs1` [KS-2], for which the “cell count determined via luminescence signal (relative light units, RLU) versus non-treated cells” value with T-REx-293 cells is “lower”.

Regarding `O=c1c2ccccc2n(Cc2ccc(Cl)cc2)c(=O)n1C1CC=CC1` [KS-8], the “cell count determined via luminescence signal (relative light units, RLU) versus non-treated cells” value in the data set on T-REx-293 cells is on record as “lower”.

`O=c1c2ccccc2n(Cc2ccc(Cl)cc2)c(=O)n1Cc1ccc(Cl)cc1` [Compound 3]: in data set [1], the “viability of ApoL1-G1 expressing cells” value is recorded as “concentration dependent viability increase”, the “cell protective effect” value is on record as “highest cell protective effect” and the cell toxicity result was “without exhibiting a significant cell toxicity”.

For the origin of these results see patent US12629376B2, “Composition for use in the treatment of ApoL1-associated disease” (RAMBAM MED-TECH LTD., priority 2020, dated 2026).
